Source: article PMC9503778, “Targeted Isolation of Antibiotic Brominated Alkaloids from the Marine Sponge Pseudoceratina durissima Using Virtual Screening and Molecular Networking” (Marine Drugs, 2022)
≈ marks a conversion by molar mass, not a printed value.

Experiments:
HIV = test system: HIV; design: method as in earlier work; conditions: read-out: IC50 against HIV; cited from earlier work
[1] = test system: zebrafish (Danio rerio) larvae at 5 dpf; assay: Zebrafish Larval Photo-motor Response (LPR) bioassay; type: in vivo; conditions: 1 nM, 10 nM and 100 nM
Protocol: (§1) For the zebrafish bioactivity assay, three experiments were performed on 5 days post fertilization (dpf) zebrafish larvae treated with methanol crude extracts from all four sponge specimens, using total distance moved as an endpoint metric. Spontaneous swimming experiments were performed according to the following protocol: allowing a 2 min acclimatization period in darkness followed by a 5 min darkness swimming period, where total distance moved was measured. Simulated predator response (SPR) experiments were performed involving a 2 min acclimatization period in light conditions, followed by 3 min in light free swimming and a measurement period of 3 mins in dark. Finally, a Larval Photo-motor Response (LPR) experiment was conducted beginning with 2 mins light acclimatization followed by three cycles of alternating photic stimulus (each cycle consisting of 4 min light –4 min dark conditions to assess the profile of the treatment across time, Figure 8.
Basal behavioral analysis was conducted on zebrafish (Danio rerio) larvae at 5 dpf using an in-house custom-built behavioral analysis system. […]
All data was averaged across replicate larvae for each treatment and control, respectively, and presented as mean ± SEM. Cumulative distance traveled by larvae was measured by summing the incremental distance moved by each larva between frames of video files. […]

S. aureus ATCC 25923 = test system: S. aureus ATCC 25923; design: method as in PMID 8297426; conditions: cited from earlier work
[2] = test system: zebrafish (Danio rerio) larvae at 5 dpf; assay: Zebrafish larvae spontaneous, unstimulated swimming bioassay; type: in vivo; conditions: for Spontaneous swimming, mean distance moved: 10 nM and 100 nM, compared with 1 nM
Protocol: as §1
(§2) Basal behavioral analysis was conducted on zebrafish (Danio rerio) larvae at 5 dpf using an in-house custom-built behavioral analysis system. All assays followed standard protocols as previously described.
(§3) Zebrafish were housed and bred in the AquaCore facility, Monash University, according to standard procedures. Larvae were maintained in E3 media (5mM NaCl, 0.17mM KCl, 0.33 mM CaCl2, 0.33 mM MgSO4, supplemented with 1 x 10 – 5% methylene blue as antimycotic).
(§4) Digital video processing and animal tracking was performed using Ethovision XT ver.16 (Noldus Inc., Wageningen, The Netherlands) using a standardized method as described before.
(§5) All data was averaged across replicate larvae for each treatment and control, respectively, and presented as mean ± SEM. Cumulative distance traveled by larvae was measured by summing the incremental distance moved by each larva between frames of video files. Statistical analysis and data presentation was performed using Prism 8 (GraphPad Software Inc., San Diego, CA, USA). Data sets were tested for outliers and normality of distribution, followed by either one-way or two-way ANOVA testing for significance. […] Where time point data was collected significance was compared for each time domain with that of vehicle controls. Significance was universally set to p < 0.05.

S. aureus = test system: S. aureus; design: method as in PMID 8297426; conditions: tested at 100 µg/mL; cited from earlier work
[3] = test system: zebrafish (Danio rerio) larvae at 5 dpf; assay: Zebrafish larvae simulated predator response (SPR) bioassay; type: in vivo; conditions: for SPR, profile across concentrations: 10 nM; for SPR, total distance moved vs vehicle control: p < 0.0001
Protocol: as §1, §2, §3, §4, §5

[4] = test system: Mediterranean fish species Blennius sphinx; design: method as in PMID 15018063; conditions: cited from earlier work

SMILES	LPR, mean area under the curve across light and dark cycles vs vehicle control [1]	Spontaneous swimming, profile across concentrations ([2]; 1 nM, 10 nM, 100 nM)	Spontaneous swimming, total distance moved vs vehicle control ([2]; 1 nM, 5 dpf larvae, p < 0.0001)	Spontaneous swimming, mean distance moved [2]	SPR, profile across concentrations ([3]; 1 nM, 100 nM)	also measured
COC1=C(Br)[C@H](O)[C@](O)(CC#N)C=C1Br [Compound 1, (+)-aeroplysinin-1]	reduced hyperactivity at higher concentrations	increased hypoactivity with higher concentrations	significant hyperactivity effects	reduced mean distance moved	increased hypoactivity with higher concentrations	IC50 (HIV): 14.6 µM; MIC against S. aureus ATCC 25923 (S. aureus ATCC 25923): 25 µg/mL (≈ 73.8 µM); inhibition zones in disc diffusion assays against S. aureus (S. aureus): large inhibition zones; SPR, total distance moved vs vehicle control ([3]; 1 nM): significant hyperactivity effects
NC(=O)Cc1c(O)cc(Br)c(O)c1Br [Compound 9, subereaphenol A]	–	–	significant hyperactivity	reduced mean distance moved	–	–
COC1=C(Br)[C@H](O)[C@@]2(C=C1Br)CC(C(=O)NCCCCCNC(=O)C1=NO[C@]3(C=C(Br)C(OC)=C(Br)[C@@H]3O)C1)=NO2 [Compound 3, homoaerothionin]	–	dose dependent hypoactivity effect	significant hyperactivity	reduced mean distance moved	–	SPR, total distance moved vs vehicle control ([3]; 100 nM): Clear hyperactivity
COC1(OC)C(Br)=CC(O)(CC(N)=O)C=C1Br [Compound 6, 2-(3,5-dibromo-1-hydroxy-4,4-dimethoxycyclohexa-2,5-dien-1-yl)acetamide]	–	–	–	–	–	Spontaneous swimming, total distance moved vs vehicle control ([2]; 10 nM, p < 0.0001): hyperactivity; Spontaneous swimming, total distance moved ([2]; 100 nM, p < 0.0001): curtailed
COC1=C(Br)[C@H](O)[C@@]2(C=C1Br)CC(C(=O)NCCCCNC(=O)C1=NO[C@]3(C=C(Br)C(OC)=C(Br)[C@@H]3O)C1)=NO2 [Compound 2, aerothionin]	biphasic distribution of mean movement data	biphasic distribution of mean movement data	–	–	biphasic distribution of mean movement data	Spontaneous swimming, total distance moved vs vehicle control ([2]; all three concentrations (1 nM, 10 nM, 100 nM)): no significant difference to the vehicle control; feeding deterrent activity, Blennius sphinx [4]: significant feeding deterrent activity
